Consider one compound from article PMC10518255, “A first-in-class pan-lysyl oxidase inhibitor impairs stromal remodeling and enhances gemcitabine response and survival in pancreatic cancer” (Nature Cancer, 2023).

Where “and” joins values, the source holds several entries; their conditions need not be identical. Equal entries are not always repeated.

Data set [1] concerns the target T1, bovine aorta extracted LOX (Bos taurus, UniProt P33072).
T1 construct: performed in an amplex red assay using bovine aorta extracted LOX; from tissue; host or cells: bovine aorta
The experiment in a line: Substrate competition assay versus putrescine dihydrochloride, amplex red (Extended Data Fig. 3b). The class given is biochemical. From the text: Similar to other fluoroallylamine-based amine oxidase inhibitors, the mode of inhibition is assumed to be a two-step mechanism (Fig. 2c), with PXS-5505 reacting with the unique LTQ cofactor found within the active site. The fluoroallylamine facilitates the formation of a covalent, irreversible bond. […] Furthermore, in jump dilution experiments, there is no significant recovery of activity following rapid dilution (LOXL1 (5 ± 5% recovery, n = 4), LOXL2 (7 ± 1.2% recovery, n = 3) and LOXL3 (11 ± 2% recovery, n = 3)).
Data presented as mean values +/− SD. f. […] Data presented as mean values +/− SD. […] Data presented as mean values +/− SD. […] Data presented as mean values +/− SD. Ordinary one-way ANOVA for multiple comparison test performed. Source data

The subject of data set [2] is human pancreatic cancer CAFs. The experiment in a line: 3D organotypic matrix contraction assay. The note with it: for area of matrices: single replicates. More on the design: area of matrices: unit not given here. The data set is classed as cell-based. How it is done: High-purity rat tail collagen for 3D organotypic assays was acid extracted following previously published methodology. The 12-day organotypic assays were carried out as described previously. In brief, 2 × 10^5 KPC CAFs were embedded in 2.5 ml 1.5 mg ml^−1 rat tail collagen and allowed to remodel for 12 days in a six-well plate in DMEM supplemented with 10% FBS and 1% penicillin–streptomycin in 21% O2/5% CO2 (Extended Data Fig. 4a). For human pancreatic cancer CAFs, 3.45 × 10^5 cells were embedded into 1.25 ml 1.5 mg ml^−1 rat tail collagen and allowed to remodel for 12 days in a 12-well plate in IMDM supplemented with 4 mM glutamine and 10% FBS in 21% O2/5% CO2.
Extended Data Fig. 4 PXS-5505 inhibits collagen cross-linking by PDAC CAFs in vitro resulting in decreased cancer cell invasion. a. Schematic of organotypic matrix remodeling assay whereby CAFs are embedded into a 3D collagen matrix and growth media supplemented with or without PXS-5505 to inhibit lysyl oxidase family activity b. Chemical structures of lysyl oxidase family catalyzed hydroxyallysine or allysine residues and the subsequent divalent and trivalent bonds that are formed that can be quantified by mass spectrometry. c. Representative images of 3D organotypic matrix contraction by human pancreatic cancer CAFs at days 2, 6 and 12 in the absence (gray) and presence (pink) of PXS-5505 (30 µM). Scale bars = 5 mm. […] Data presented as mean values +/− SD. d. […] Data presented as mean values +/− SD. Relative fold expression of LOXL family members compared to LOX were determined by 2^–∆∆Ct approach. f. Schematic of cancer cell invasion in a 3D organotypic matrix assay whereby cancer cells are seeded to the surface of a remodeled collagen plug and placed at an air–liquid interface and allowed to invade into the remodeled matrix. […] Scale bars = 100 μm. g. […] Representative images of 3D organotypic matrix contraction assay at days 2, 6 and 12 of control (gray) and presence of PXS-5120 (blue) and PXS-5505 (pink). Scale bars = 5 mm. Comparison of measured area of matrices between control, PXS-5120 and PXS-5505 treatment groups (n = 3) over time. i. […] Representative images of invasion of KPC cancer cells into a contracted organotypic matrix as determined by H&E staining. […] Source data

Data set [3] can be described thus: Tissue concentration by LC-MS/MS after single oral dose of 30 mg/kg (plasma, kidney, liver, lung, heart, ear; Extended Data Fig. 3e). How it is done: PXS-5505 concentration, as measured by LC–MS/MS, in rat plasma, kidney, liver, lung, heart and ear samples following a single oral dose of 30 mg/kg (n = 3 independent animals). Data presented as mean values +/− SD. f. Plasma concentration profile over time in mice following oral administration of PXS-5505 (30 mg/kg) (n = 3 independent animals) g. Schematic of amplex red coupled fluorometric lysyl oxidase family activity assay whereby putrescine (put) is used as a substrate resulting in the release of H2O2 and its subsequent catalysis by horseradish peroxidase (HRP) to […] amplex red to resorufin resulting in a fluorescently detectable signal. […] Data presented as mean values +/− SD. h. qRT-PCR showing in vitro 48 hour treatment of KPC CAFs or cancer cells with 30 μM PXS-5505 or vehicle control (n = 3 biological repeats with 3 technical replicates per biological repeat). Data presented as mean values +/− SD. Relative fold expression of lysyl oxidase family members from PXS-5505 treated samples compared to control were determined by the 2^–∆∆Ct approach. p-values determined by unpaired, nonparametric t-test with a Mann–Whitney U correction (comparison between two groups). i. 2D in vitro cell viability assay (MTS assay) for KPC CAFs and CCs (n = 3 biological repeats with 3 technical replicates per biological repeat) in response to PXS-5505. Data presented as mean values +/− SD. Ordinary one-way ANOVA for multiple comparison test performed. j. 3D in vitro cell viability assay (MTS assay) for KPC CAFs and CCs (n = 3 biological repeats with 3 technical replicates per biological repeat) in response to PXS-5505. Data presented as mean values +/− SD. Ordinary one-way ANOVA for multiple comparison test performed. Source data

[4] abbreviates: rat, single oral dose 30 mg/kg, 1 hr, n = 3.

T1 sequence (P33072 170-418): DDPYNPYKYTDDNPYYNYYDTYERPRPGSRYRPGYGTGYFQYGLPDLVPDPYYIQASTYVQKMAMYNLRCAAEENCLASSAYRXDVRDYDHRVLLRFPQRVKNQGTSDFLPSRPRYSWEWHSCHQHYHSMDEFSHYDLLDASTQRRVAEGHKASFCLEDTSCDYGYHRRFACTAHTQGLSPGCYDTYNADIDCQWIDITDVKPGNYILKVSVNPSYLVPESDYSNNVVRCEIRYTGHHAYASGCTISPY

In the case of `Cl.Cl.NC/C=C(\F)CS(=O)(=O)c1cccc2cccnc12.O` [PXS-5505, (Z)-3-fluoro-4-(quinolin-8-ylsulfonyl)but-2-en-1-amine dihydrochloride monohydrate], the substrate competition entry in data set [1] is “substrate competition”. In addition, in data set [2] (human pancreatic cancer CAFs, PXS-5505 30 µM), the matrix contraction result is recorded as “no effect on CAF ability to contract matrices”. Also, the area of matrices in data set [2] (time 0) is recorded as 3.834. In addition, the area of matrices in data set [2] (time 6) was 3 and 2.954 and 2.863 and 2.88 and 3.193 (2×) and 3.06 and 3.1 and 3.113. Besides, the area of matrices in data set [2] (time 10) was 2.446 and 2.524 and 2.482 and 2.6253 and 2.773 and 2.7357 and 2.554 (2×) and 2.298. Also, the area of matrices in data set [2] (time 12) is 2.093 and 2.049 and 2.109 and 2.548 and 2.951 and 2.912 and 2.791 (2×) and 2.892. In addition, the tissue penetration entry in data set [3] (after oral administration) is “penetrates core and peripheral matrix-rich tissues (the ear pinnae) well”. In data set [3] (setting [4]), the “PXS-5505 concentration by LC-MS/MS, ear, Mean” value was found to be 1911.2; the “PXS-5505 concentration by LC-MS/MS, heart, Mean” value amounted to 5777.3; the “PXS-5505 concentration by LC-MS/MS, kidney, Mean” value came to 19237.2; the “PXS-5505 concentration by LC-MS/MS, liver, Mean” value is 32467.6. Further, in data set [3] (setting [4]), the “PXS-5505 concentration by LC-MS/MS, lung, Mean” value is 954.9 and the “PXS-5505 concentration by LC-MS/MS, plasma, Mean” value amounted to 3609.6.
